Several values for one entry are separate records, joined by “and”; a condition that tells them apart may be missing. Equal values may be shown once. Entries after “also recorded” stand apart in the source; their conditions may differ.

In test [1] the test system is Japanese mustard spinach. The test is described as follows: Verification experiment 1: high temperature stress, hydroponics (first time). Conditions: for effect as agent compared with zerumbone: high temperature stress, hydroponics. The class given is in vivo. The method, then: In order to confirm that the above substances have an efficacy such as alleviation of the various stresses on a plant or promotion of plant growth, some verification experiments were conducted. In each of the verification experiments, solutions of the above substances were used. A concentration thereof was in a range from 0.01 ppm to 10 ppm, in order to exert a sufficient efficacy on a plant. This concentration was appropriately adjusted for each verification experiment. For comparison, similar verification experiments using sanguinarine were conducted. In such a verification experiment for an identical purpose to the above, a concentration of sanguinarine was set to be identical to those of the above substances. A verification experiment for high temperature stress was conducted by use of Japanese mustard spinach. The experiment was conducted in the following procedures. […] Note that the agent used was zerumbone.

Test [2] concerns Japanese mustard spinach. The test is described as follows: Verification experiment 2: high temperature and low sunshine stress, hydroponics (second time-B).
Test [3] deals with Japanese mustard spinach. As to the kind of experiment: Verification experiment 2: high temperature stress, hydroponics, plenty of sunlight (second time-A).
In test [4] the test system is cucumber. As to the kind of experiment: Verification experiment 8: low temperature stress, TTC test. Type of test: in vivo. Conditions: for TTC test dyeing of leaves (cell activity): remaining plants cultivated two days under fluorescent lamp at 4° C.
Test [5] relates to racomitrium moss. As to the kind of experiment: Verification experiment 17: high temperature stress, Bryophyta, TTC test. Conditions: samples immersed in tap water of 45° C. for 18 hours. The class given is in vivo. The method, then: As a Bryophyta, racomitrium moss was used, which is a Bryophyta widely used for greening a park, a rooftop, and a garden. Verification experiments for various stresses were conducted thereon. The experiments were conducted in the following procedures. […] Meanwhile, the control sample was sprayed only with water. After the spraying, the racomitrium mosses were cultivated at 25° C. for one day. Then, the samples were subjected to various stresses. Thus, cell activities of the samples were determined by TTC test. […] On such samples, TTC test was conducted.

For test [6], the system named is racomitrium moss. The test is described as follows: Verification experiment 18: organic acid stress, Bryophyta, TTC test. The class given is in vivo. Conditions: samples immersed in 0.4% acetic acid solution for three hours.
The subject of test [7] is cucumber. The test is described as follows: Verification experiment 9: organic acid stress, TTC test. The class given is in vivo. Conditions: cut leaves immersed in 0.4% acetic acid solution for two hours.
For test [8], the system named is cucumber. The test is described as follows: Verification experiment 11: ultraviolet ray stress, TTC test. Type of test: in vivo. Conditions: cut leaves irradiated with ultraviolet ray for 24 hours.
In test [9] the test system is cucumber. The test is described as follows: Verification experiment 12: salt stress, TTC test. Type of test: in vivo. The following applies: cut leaves immersed in 1.0% saline water for 24 hours.
Test [10] deals with autumn fern. As to the kind of experiment: Verification experiment 14: high temperature stress, Pteridophyta, TTC test. The class given is in vivo. The following applies: cut leaves immersed in tap water of 45° C. for 18 hours. The method, then: As a Pteridophyta, autumn fern was used, which is a representative Pteridophyta often found in, […] bright forest. Verification experiments for various stresses were conducted thereon. The experiments were conducted in the following procedures. […] Meanwhile, the leaf surfaces of the control sample were sprayed only with water. After the spraying onto the leaf surfaces, the autumn fern seedlings were cultivated at 25° C. for one day. The leaves were cut in a suitable size, and were then subjected to various stresses. Then, cell activities of the samples were determined by TTC test. The leaves that were cut in the suitable size were immersed in tap water of 45° C. for 18 hours. On such leaves, TTC test was conducted.

The subject of test [11] is cucumber. As to the kind of experiment: Verification experiment 10: ammonia stress, TTC test. The following applies: cut leaves immersed in 1.0% ammonia solution for three hours. Type of test: in vivo.
Test [12] concerns cucumber. The test is described as follows: Verification experiment 6: dry stress. The class given is in vivo. The following applies: for Weight of each seedling: 3 ml agent added immediately after germination, 18 days cultivation, soil surface kept dry, samples No. 1-9; for Average: average seedling weight after 18 days dry stress; for Weight comparison (%): control = 100.0. The method, then:
By use of cucumber, a resistance to dry stress was investigated. 3 ml of Zerumbone was added to cucumber seedlings immediately after germination. The cucumber seedlings were cultivated for 18 days. Meanwhile, another cucumber seedlings were cultivated for 18 days without Zerumbone added thereto. Throughout the cultivation period, a minimum amount of water was given and watering was conducted a minimum number of times so that the soil surface was always kept dry. […] A weight of each of the seedlings was measured. […] Note that, except for the agent, the cultivation conditions used were identical to those of the case where zerumbone was used.

Test [13] relates to autumn fern. The test is described as follows: Verification experiment 15: organic acid stress, Pteridophyta, TTC test. Type of test: in vivo. The following applies: cut leaves immersed in 0.4% acetic acid solution for three hours.
The next test deals with leaf lettuce. The test is described as follows: Verification experiment 13: hydroponics test on leaf lettuce in vinyl greenhouse in summer. The class given is in vivo.
Test [14] concerns autumn fern. The test is described as follows: Verification experiment 16: ammonia stress, Pteridophyta, TTC test. Conditions: cut leaves immersed in 1.0% ammonia solution for 48 hours. The class given is in vivo.
Test [15] has as its system racomitrium moss. The test is described as follows: Verification experiment 19: ammonia stress, Bryophyta, TTC test. Type of test: in vivo. Conditions: samples immersed in 1.0% ammonia solution for 48 hours.
The mark [16] stands for this setting: cut leaves left two days in dark place at 0° C.
Where [17] appears, read: cut leaves left two days in dark place at −10° C.
Setting [18] is: leaf lettuce, summer greenhouse hydroponics.

Turning to `C[n+]1cc2c3c(ccc2c2ccc4cc5c(cc4c21)OCO5)OCO3` [Sanguinarine, sanguinarine, reference compound], the “Average” value in the test with Japanese mustard spinach [1] (average weight of 10 samples, first time) was 1.574 g; in the test on Japanese mustard spinach [2] (second time-B) it was 1.838 g; in the test on Japanese mustard spinach [3] (second time-A) it was 2.090 g. The “weights greater than those of the control samples” value in the test with Japanese mustard spinach [1] (average weights compared, first time) is “approximately 3%”; in the test with Japanese mustard spinach [3] (Table 2 experiment) it was “approximately 11%”. Further, the “Growth ratio (%)” value came out at 103.2% in the test with Japanese mustard spinach [1] (control = 100.0, first time); 116.7% with Japanese mustard spinach [2] (control = 100.0, second time-B); 110.7% in the test on Japanese mustard spinach [3] (control = 100.0, second time-A). Moreover, the “Weight of 10 samples” value in the test with Japanese mustard spinach [1] (dry weight of 10 seedlings, leaf spray, nine days culture, maximum temperature 30-43 °C, plenty of sunlight, first time) was 1.554 g and 1.538 g and 1.594 g and 1.610 g; in the test with Japanese mustard spinach [2] (dry weight of 10 seedlings, nine days, 30-43 °C, almost no sunlight, second time-B) it was 1.802 g and 1.873 g; in the test on Japanese mustard spinach [3] (dry weight of 10 seedlings, nine days, 30-43 °C, plenty of sunlight, second time-A), 1.996 g and 2.027 g and 2.156 g and 2.179 g. In the test on Japanese mustard spinach [2] (Table 3 experiment, almost no sunlight), the “growth better than the growth of the control samples” value is “approximately 17%”.
For the compound `C/C1=C\CC/C(C)=C/CC(C)(C)/C=C/C1` [α-humulene], in the test on cucumber [4] (setting [16]), the “TTC test dyeing (cell activity)” value is “dyed deeply”. Besides, the “TTC test dyeing (cell activity)” value in the test with cucumber [4] (setting [17]) is reported as “dyed slightly”. In the test on cucumber [4], the “TTC test dyeing of leaves (cell activity)” value is recorded as “dyed deeply except for their peripheries”. Moreover, the “effect as agent compared with zerumbone” value in the test with Japanese mustard spinach [1] is “effects almost similar to that of zerumbone”. Moreover, the “TTC test dyeing (cell activity)” value in the test on racomitrium moss [5] is recorded as “dyed slightly”. The “TTC test dyeing (cell activity)” value with racomitrium moss [6] is on record as “dyed slightly”. The “cells having an activity (TTC test)” value in the test with cucumber [7] was “approximately half of the cells”. Further, the “cells having an activity (TTC test)” value in the test with cucumber [8] was “approximately half of the cells”. The “cells alive (TTC test)” value in the test with cucumber [9] was “most of the cells”. Moreover, the “TTC test dyeing (cell activity)” value with autumn fern [10] was “dyed slightly”. For the same compound, the “cells having an activity (TTC test)” value with cucumber [11] is on record as “a part of the cells”. Further, in the test on cucumber [12], the “Weight of each seedling” value was 2.69 g and 2.99 g and 3.21 g and 3.07 g and 3.02 g and 2.76 g and 2.65 g and 3.03 g; the “Average” value was determined as 2.90 g; the “Weight comparison (%)” value amounted to 108.5%. Besides, the “TTC test dyeing (cell activity)” value with autumn fern [13] is “dyed slightly”. In the test on leaf lettuce (in vivo), the “Disease resistance: Powdery mildew” value is reported as “Not occurred”, the “Disease resistance: Root rot” value was “Not occurred”, the “Physiological disorder (quality): Heterophyll” value was “Not occurred” and the “Physiological disorder (quality): Root spread condition” value was “far better than in the sanguinarine test section; also recorded: Generally”. Moreover, in the test with leaf lettuce (in vivo), the “Physiological disorder (quality): Taste” value is “No bitterness”, the “Physiological disorder (quality): Tip burn (dead fringes of leaf)” value is given as “Not occurred”, the “Physiological disorder (quality): Unproductive growth” value is given as “Not occurred” and the “occurrence of a disease (overall)” value is on record as “occurrence of a disease was not observed”. The “physiological disorder (overall)” value with leaf lettuce (in vivo) is recorded as “no physiological disorder occurred”. Further, the “TTC test dyeing (cell activity)” value in the test on autumn fern [14] was “dyed slightly”. Besides, the “TTC test dyeing (cell activity)” value with racomitrium moss [15] is listed as “dyed slightly”.
As for `C=C1CC/C=C(\C)CC[C@@H]2[C@@H]1CC2(C)C` [β-caryophyllene], in the test on cucumber [4] (setting [16]), the “TTC test dyeing (cell activity)” value is reported as “dyed deeply”. Further, the “TTC test dyeing (cell activity)” value with cucumber [4] (setting [17]) was “dyed slightly”. Moreover, the “TTC test dyeing of leaves (cell activity)” value in the test on cucumber [4] is listed as “dyed deeply except for their peripheries”. For the same compound, the “effect as agent compared with zerumbone” value in the test with Japanese mustard spinach [1] is reported as “effects almost similar to that of zerumbone”. The “TTC test dyeing (cell activity)” value with racomitrium moss [5] is reported as “dyed slightly”. Also, the “TTC test dyeing (cell activity)” value in the test with racomitrium moss [6] is on record as “dyed slightly”. The “cells having an activity (TTC test)” value in the test on cucumber [7] is “approximately half of the cells”. Further, the “cells having an activity (TTC test)” value in the test with cucumber [8] was “approximately half of the cells”. For the same compound, the “cells alive (TTC test)” value in the test with cucumber [9] was “most of the cells”. The “TTC test dyeing (cell activity)” value in the test with autumn fern [10] is “dyed slightly”. Also, the “cells having an activity (TTC test)” value in the test on cucumber [11] is listed as “a part of the cells”. Moreover, in the test on cucumber [12], the “Weight of each seedling” value was 2.89 g and 3.15 g and 3.01 g and 3.13 g and 2.91 g and 3.53 g and 3.11 g and 3.02 g; the “Average” value was 3.10 g; the “Weight comparison (%)” value came to 108.8%. In addition, the “TTC test dyeing (cell activity)” value in the test with autumn fern [13] is given as “dyed slightly”. Further, in the test on leaf lettuce (day on which harvest size reached 150 g to 180 g), the “Growing speed: Harvest timing” value is given as 33rd day after day after germination. Also, in the test with leaf lettuce (setting [18]), the “Disease resistance: Powdery mildew” value is “Not occurred”, the “Disease resistance: Root rot” value is on record as “Not occurred”, the “Physiological disorder (quality): Heterophyll” value is reported as “Not occurred” and the “Physiological disorder (quality): Root spread condition” value is “far better than in the sanguinarine test section; also recorded: Very good”. In the test with leaf lettuce (setting [18]), the “Physiological disorder (quality): Taste” value is “No bitterness”, the “Physiological disorder (quality): Tip burn (dead fringes of leaf)” value is “Not occurred”, the “Physiological disorder (quality): Unproductive growth” value is on record as “Not occurred” and the “occurrence of a disease (overall)” value is recorded as “occurrence of a disease was not observed”. In the test with leaf lettuce (setting [18]), the “physiological disorder (overall)” value is reported as “no physiological disorder occurred”. Further, in the test with autumn fern [14], the “TTC test dyeing (cell activity)” value is listed as “dyed slightly”. Also, the “TTC test dyeing (cell activity)” value with racomitrium moss [15] was “dyed slightly”.

The values above are taken from US20180014536A1, “AGENT FOR IMPROVING PLANT GROWTH AND METHOD FOR PRODUCING PLANT USING SAME” (FUSO CHEMICAL CO., LTD., priority 2015, published 2018).
